Broadly, the IC50 is the concentration at which inhibition is half-maximal.

Experimental findings from US11254686B1 (Corvus Pharmaceuticals, Inc., priority 2017, dated 2022) are described below.

One experiment has as its target adenosine A2B receptor (Homo sapiens (Human), UniProt P29275). As to the kind of experiment: Adenosine receptor activity assay (Table 1), A2B activity. It is filed as biochemical. The conditions noted are these: for Ratio: A2A activity to A2B activity (A2A/A2B); for IC50: read-out: Ave A2B cAMP IC50.
Another experiment has as its target adenosine A2A receptor (Homo sapiens (Human), UniProt P29274). As to the kind of experiment: Adenosine receptor activity assay (Table 1), A2A activity. The format is biochemical. To be noted: read-out: Ave A2A cAMP IC50.

Sequence of adenosine A2A receptor (P29274 whole entry): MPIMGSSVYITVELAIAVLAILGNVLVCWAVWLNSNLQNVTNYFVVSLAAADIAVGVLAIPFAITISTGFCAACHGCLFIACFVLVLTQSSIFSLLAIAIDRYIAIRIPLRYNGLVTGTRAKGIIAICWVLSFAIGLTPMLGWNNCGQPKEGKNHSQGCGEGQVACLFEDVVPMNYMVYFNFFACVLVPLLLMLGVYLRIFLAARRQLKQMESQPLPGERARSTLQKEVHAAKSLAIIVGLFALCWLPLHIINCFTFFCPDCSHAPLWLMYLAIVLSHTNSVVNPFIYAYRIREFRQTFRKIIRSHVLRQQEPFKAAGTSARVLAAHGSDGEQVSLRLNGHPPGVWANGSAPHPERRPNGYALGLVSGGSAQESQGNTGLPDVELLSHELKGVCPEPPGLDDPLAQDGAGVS
Sequence of adenosine A2B receptor (P29275 whole entry): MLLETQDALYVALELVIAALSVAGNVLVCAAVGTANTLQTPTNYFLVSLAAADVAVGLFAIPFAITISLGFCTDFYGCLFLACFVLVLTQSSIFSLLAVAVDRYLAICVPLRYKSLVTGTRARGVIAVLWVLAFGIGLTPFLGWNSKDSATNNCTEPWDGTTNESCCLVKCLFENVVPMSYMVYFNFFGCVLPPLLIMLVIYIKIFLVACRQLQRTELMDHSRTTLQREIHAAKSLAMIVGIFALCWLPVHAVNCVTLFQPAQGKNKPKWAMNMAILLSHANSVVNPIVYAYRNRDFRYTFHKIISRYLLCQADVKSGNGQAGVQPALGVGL

On to `C[C@H](Nc1nc(C(=O)N2CC[C@@H](O)C2)c2sc(N)cc2n1)c1cccnc1` [Example Z220, (6-Amino-2-(((S)-1-(pyridin-3-yl)ethyl)amino)thieno[3,2-d]pyrimidin-4-yl)((R)-3-hydroxypyrrolidin-1-yl)methanone], for which the Ratio at adenosine A2B receptor stood at 44.45. Besides, the figures for the IC50 at adenosine A2B receptor and on adenosine A2A receptor were 100 to 500 nM and greater than 500 nM, respectively.
On to `C[C@H](Nc1nc(C(=O)NCC2CCOCC2)c2sccc2n1)c1ccccn1` [Example Z227, (S)-2-((1-(Pyridin-2-yl)ethyl)amino)-N-((tetrahydro-2H-pyran-4-yl)methyl)thieno[3,2-d]pyrimidine-4-carboxamide], for which, at adenosine A2B receptor, the Ratio is given as 4.59 and the IC50 fell in the range of 10 to 50 nM. Also, at adenosine A2A receptor, the IC50 fell in the range of 100 to 500 nM.
Taken in the same sequence, the figures for `C[C@H](Nc1nc(C(=O)NC[C@H]2CCCN2C(=O)OC(C)(C)C)c2sccc2n1)c1ccccn1` [Example Z228, tert-Butyl (R)-2-((2-(((S)-1-(pyridin-2-yl)ethyl)amino)thieno[3,2-d]pyrimidine-4-carboxamido)methyl)pyrrolidine-1-carboxylate] were 2.80, greater than 500 nM and greater than 500 nM.
For `C[C@H](Nc1nc(C(=O)NCC(C)(C)O)c2sccc2n1)c1ccccn1` [Example Z230, (S)—N-(2-Hydroxy-2-methylpropyl)-2-((1-(pyridin-2-yl)ethyl)amino)thieno[3,2-d]pyrimidine-4-carboxamide], in that order: 7.45, 100 to 500 nM and greater than 500 nM.
Taken in the same sequence, the figures for `CN(C(=O)OC(C)(C)C)C1CN(C(=O)c2nc(NCc3cncc(F)c3)nc3ccsc23)C1` [Example Z235, tert-Butyl (1-(2-(((5-fluoropyridin-3-yl)methyl)amino)thieno[3,2-d]pyrimidine-4-carbonyl)azetidin-3-yl)(methyl)carbamate] were 2.57, 50 to 100 nM and 100 to 500 nM.
Consider `CC(C)(C)OC(=O)N[C@H]1CCN(C(=O)c2nc(NCc3cncc(F)c3)nc3ccsc23)C1` [Example Z245, tert-Butyl (S)-(1-(2-(((5-fluoropyridin-3-yl)methyl)amino)thieno[3,2-d]pyrimidine-4-carbonyl)pyrrolidin-3-yl)carbamate], for which, on adenosine A2B receptor, the Ratio was 1.87 and the IC50 is 50 to 100 nM. Also, the IC50 on adenosine A2A receptor is 100 to 500 nM.
On to `C[C@H](Nc1nc(C(=O)N2CC[C@@H](NC(=O)OC(C)(C)C)C2)c2sccc2n1)c1ccccn1` [Example Z246, tert-Butyl ((R)-1-(2-(((S)-1-(pyridin-2-yl)ethyl)amino)thieno[3,2-d]pyrimidine-4-carbonyl)pyrrolidin-3-yl)carbamate], for which the IC50 was in the range of 10 to 50 nM at adenosine A2B receptor and 100 to 500 nM at adenosine A2A receptor.
Consider `C[C@H](Nc1nc(C(=O)N2CC(O)C2)c2sc(N)cc2n1)c1cccnc1` [Example Z248, (S)-(6-Amino-2-((1-(pyridin-3-yl)ethyl)amino)thieno[3,2-d]pyrimidin-4-yl)(3-hydroxyazetidin-1-yl)methanone], for which, on adenosine A2B receptor, the Ratio stood at 15.23 and the IC50 fell in the range of 50 to 100 nM. Besides, the IC50 at adenosine A2A receptor was greater than 500 nM.
Take `O=C(c1nc(NCc2cncc(C(F)(F)F)c2)nc2ccsc12)N1CCC1` [Example Z257, Azetidin-1-yl(2-(((5-(trifluoromethyl)pyridin-3-yl)methyl)amino)thieno[3,2-d]pyrimidin-4-yl)methanone]: on adenosine A2B receptor, the Ratio was 9.16 and the IC50 lay within 50 to 100 nM. On adenosine A2A receptor, the IC50 is greater than 500 nM.
`O=C(c1nc(NCCc2ccccc2)nc2ccsc12)N1CCCC1` [Example Z258, (2-(Phenethylamino)thieno[3,2-d]pyrimidin-4-yl)(pyrrolidin-1-yl)methanone]: the Ratio at adenosine A2B receptor is given as 1.70. Also, the IC50 on adenosine A2B receptor and at adenosine A2A receptor was 100 to 500 nM each time.
Take `CS(=O)(=O)[C@@H]1CCN(C(=O)c2nc(NCc3cncc(F)c3)nc3ccsc23)C1` [Example Z261, (R)-(2-(((5-Fluoropyridin-3-yl)methyl)amino)thieno[3,2-d]pyrimidin-4-yl)(3-(methylsulfonyl)pyrrolidin-1-yl)methanone]: on adenosine A2B receptor, the Ratio was 10.23 and the IC50 was 100 to 500 nM. Further, the IC50 at adenosine A2A receptor was greater than 500 nM.
For `C[C@H](Nc1nc(C(=O)N2CC[C@@H](S(C)(=O)=O)C2)c2sccc2n1)c1cccnc1` [Example Z262, ((R)-3-(Methylsulfonyl)pyrrolidin-1-yl)(2-(((S)-1-(pyridin-3-yl)ethyl)amino)thieno[3,2-d]pyrimidin-4-yl)methanone], in that order: 1.12, greater than 500 nM and greater than 500 nM.
For `O=C(c1nc(NCc2cncc(C(F)(F)F)c2)nc2ccsc12)N1CC[C@H](O)C1` [Example Z264, (S)-(3-Hydroxypyrrolidin-1-yl)(2-(((5-(trifluoromethyl)pyridin-3-yl)methyl)amino)thieno[3,2-d]pyrimidin-4-yl)methanone], in that order: 13.34, greater than 500 nM and greater than 500 nM.
For `C[C@H](O)CNC(=O)c1nc(NCc2cncc(C(F)(F)F)c2)nc2ccsc12` [Example Z265, (S)—N-(2-Hydroxypropyl)-2-(((5-(trifluoromethyl)pyridin-3-yl)methyl)amino)thieno[3,2-d]pyrimidine-4-carboxamide], in that order: 16.94, 100 to 500 nM and greater than 500 nM.
`C[C@@H](O)CNC(=O)c1nc(NCc2cncc(C(F)(F)F)c2)nc2ccsc12` [Example Z266, (R)—N-(2-Hydroxypropyl)-2-(((5-(trifluoromethyl)pyridin-3-yl)methyl)amino)thieno[3,2-d]pyrimidine-4-carboxamide]: the Ratio on adenosine A2B receptor worked out at 34.17. For the same compound, the values for the IC50 at adenosine A2B receptor and on adenosine A2A receptor were 100 to 500 nM and greater than 500 nM, respectively.
Regarding `C[C@H](Nc1nc(C(=O)NC(CO)c2cccnc2)c2sccc2n1)c1ccccn1` (stereo partly drawn) [Example Z269, N-(2-Hydroxy-1-(pyridin-3-yl)ethyl)-2-(((S)-1-(pyridin-2-yl)ethyl)amino)thieno[3,2-d]pyrimidine-4-carboxamide], at adenosine A2B receptor, the Ratio is given as 0.36 and the IC50 was greater than 500 nM. The IC50 at adenosine A2A receptor is 100 to 500 nM.
Take `O=C(c1nc(NC(CO)c2cccnc2)nc2ccsc12)N1CCCC1` (centres unmarked) [Example Z270, (2-((2-Hydroxy-1-(pyridin-3-yl)ethyl)amino)thieno[3,2-d]pyrimidin-4-yl)(pyrrolidin-1-yl)methanone]: the Ratio at adenosine A2B receptor was 27.81. Also, the IC50 at adenosine A2B receptor is 10 to 50 nM; at adenosine A2A receptor, greater than 500 nM.
Take `O=C(c1nc(NCCn2ccnc2)nc2ccsc12)N1CCCC1` [Example Z273, (2-((2-(1H-Imidazol-1-yl)ethyl)amino)thieno[3,2-d]pyrimidin-4-yl)(pyrrolidin-1-yl)methanone]: at adenosine A2B receptor, the Ratio was 2.15 and the IC50 was greater than 500 nM. The IC50 on adenosine A2A receptor is greater than 500 nM.
Take `C[C@H](Nc1nc(C(=O)N2CC[C@H](S(C)(=O)=O)C2)c2sccc2n1)c1ccccn1` [Example Z274]: at adenosine A2B receptor, the Ratio came to 1.11 and the IC50 fell in the range of 100 to 500 nM. On adenosine A2A receptor, the IC50 fell in the range of 100 to 500 nM.
